The values below come from EP4786485A1, “STRAIGHT CHAIN PEPTIDE COMPOUND AND USE THEREOF” (Shenzhen Zhongge Biological Technology Co., Ltd., priority 2023, dated 2026).

What all share (format): cell-based, Human
In one experiment the test system is hyaluronic acid (HA). In words: ELISA: effect of increasing the content of HA in fibroblasts. Details: Effect of increasing the content of HA in the fibroblasts: unit not given here. The settings on record: 1 µM, 24 h; for Effect of increasing the content of HA in the fibroblasts: human-derived fibroblasts, ELISA, blank control BC = 1402.44; for increase in the content of hyaluronic acid (HA): in words, compared to the BC, fibroblasts. The method, then: (§1) B. Effects of increasing the contents of Collagen I (type I collagen), hyaluronic acid (HA), and Elastin (ELN) in fibroblasts
(§2) Test materials: Human-derived fibroblasts (Guangdong BioCell Biotechnology Co., Ltd., Lot No. Fb20081902), DMEM culture medium (Gibco, 23042301, expiration date 230522), PBS (Solarbio, P1010), TGF-β1 (Peprotech, 230504), Collagen I ELISA Kit (Cusabio, B21025824), Elastin ELISA Kit (Abcam, GR3446070-2), HA ELISA Kit (RD, P325066), CO2 incubator (Thermo, 150I), super-clean bench (AIRTECH, SW-CJ-1F), and microplate reader (BioTek, Epoch).
(§3) Test methods: • 1) Inoculation: After cell resuscitation, the cells were inoculated into 6-well plates when the plating rate reached around 60%, and were incubated overnight in an incubator (37°C, 5% CO2). • 2) Formulation of solutions: The linear peptide compounds in the sample groups, and PC2 (Biotinoyl-GHK, [drawing 69] ) and PC3 ( [drawing 70] ) in the positive control group were all at the concentration of 1 µM, and the test substance working solutions were formulated. • 3) Administration: When the cell plating rate in the 6-well plates reached 40% to 60%, administration was performed at 2 mL per well. Three duplicate wells were set for each group. Incubation was performed in an incubator (37°C, 5% CO2) for 24 h. • 4) ELISA assay: The ELISA assays were performed according to the instructions of the respective ELISA kits, with the detection indicators being effect of increasing the content of Collagen I in the fibroblasts, effect of increasing the content of HA in the fibroblasts, and effect of increasing the content of Elastin in the fibroblasts, respectively.
Background: An ELISA detects its analyte on a solid surface through an enzyme-linked reagent.

In another experiment the test system is Elastin (ELN). In words: ELISA: effect of increasing the content of Elastin in fibroblasts. Details: Effect of increasing the content of Elastin in the fibroblasts: unit not given here. The settings on record: 1 µM; for Effect of increasing the content of Elastin in the fibroblasts: 24 h incubation, ELISA, blank control (BC) 756.52; for increase in the content of Elastin: in words, compared to the BC, 24 h, fibroblasts. The method, then: as §1, §2, §3

In experiment [1] the test system is Collagen I (type I collagen). As to the kind of experiment: ELISA: effect of increasing the content of Collagen I in fibroblasts. Conditions: 1 µM, 24 h; for Effect of increasing the content of Collagen I in the fibroblasts: human-derived fibroblasts, ELISA, blank control BC = 35.6; for increase in the content of type I collagen (Collagen I): in words, compared to the BC, fibroblasts. Set-up: Effect of increasing the content of Collagen I in the fibroblasts: unit not given here. The method, then: as §1, §2, §3

Where a SMILES comes first, the peptide text is derived from it. [ ]: non-standard residue; d: D form. The star is where a group is joined. Biotin = O=C1N[C@H]2[C@H](CS[C@H]2CCCCC(=O)*)N1; Phe(3,4-Cl2) = N[C@@H](Cc1ccc(Cl)c(Cl)c1)C(=O)O; Lys(Me3) = C[N+](C)(C)CCCC[C@H](N)C(=O)O; Phe(4-Me) = Cc1ccc(C[C@H](N)C(=O)O)cc1; Palmitoyl = CCCCCCCCCCCCCCCC(=O)*; Hyp = O=C(O)[C@@H]1C[C@@H](O)CN1

Take `CNC(=O)[C@H](Cc1ccc(C)cc1)NC(=O)[C@H](C)NC(=O)[C@H](CCCCN)NC(=O)[C@H](Cc1c[nH]cn1)NC(=O)CNC(=O)[C@H](CCCC[N+](C)(C)C)NC(C)=O` [compound 337] (Ac-[Lys(Me3)]GHKA[Phe(4-Me)]-NHMe): in the experiment on hyaluronic acid (HA), the “Effect of increasing the content of HA in the fibroblasts” value (from here on “Effect of increasing the content of HA”) worked out at 2421.21 and the “increase in the content of hyaluronic acid (HA)” value (“increase in the content … (HA)” for short) is listed as “significant increase”. Besides, in the experiment with Elastin (ELN), the “Effect of increasing the content of Elastin in the fibroblasts” value came to 1320.95 and the “increase in the content of Elastin” value was “significant increase”. In addition, in experiment [1], the “Effect of increasing the content of Collagen I in the fibroblasts” value is recorded as 95.66 and the “increase in the content of type I collagen (Collagen I)” value (shortened to “increase in the content … (Collagen I)”) was “significant increase”.

On to `CNC(=O)[C@H](Cc1ccc(Cl)c(Cl)c1)NC(=O)[C@H](C)NC(=O)[C@H](CCCCN)NC(=O)[C@H](Cc1c[nH]cn1)NC(=O)CNC(=O)[C@H](CCCC[N+](C)(C)C)NC(C)=O` [compound 338] (Ac-[Lys(Me3)]GHKA[Phe(3,4-Cl2)]-NHMe), for which, in the experiment on hyaluronic acid (HA), the “Effect of increasing the content of HA” value worked out at 1913.07 and the “increase in the content … (HA)” value is “significant increase”. Moreover, in the experiment on Elastin (ELN), the “Effect of increasing the content of Elastin in the fibroblasts” value is 1060.72 and the “increase in the content of Elastin” value was “significant increase”. For the same compound, in experiment [1], the “Effect of increasing the content of Collagen I in the fibroblasts” value was 89.07 and the “increase in the content … (Collagen I)” value was “significant increase”.

Consider `CNC(=O)[C@H](Cc1ccc(C)cc1)NC(=O)CNC(=O)[C@H](CCCCN)NC(=O)[C@H](Cc1c[nH]cn1)NC(=O)CNC(=O)[C@H](CCCC[N+](C)(C)C)NC(C)=O` [compound 349] (Ac-[Lys(Me3)]GHKG[Phe(4-Me)]-NHMe), for which, in the experiment on hyaluronic acid (HA), the “Effect of increasing the content of HA” value is listed as 1794.21 and the “increase in the content … (HA)” value is reported as “significant increase”. In the experiment with Elastin (ELN), the “Effect of increasing the content of Elastin in the fibroblasts” value is given as 836 and the “increase in the content of Elastin” value was “significant increase”. In experiment [1], the “Effect of increasing the content of Collagen I in the fibroblasts” value stood at 90.16 and the “increase in the content … (Collagen I)” value is recorded as “significant increase”.

Regarding `CNC(=O)[C@H](CCCC[N+](C)(C)C)NC(=O)CNC(=O)[C@H](Cc1c[nH]cn1)NC(=O)[C@H](CCCCN)NC(=O)[C@H](Cc1ccc(C)cc1)NC(C)=O` [compound 358] (Ac-[Phe(4-Me)]KHG[Lys(Me3)]-NHMe), in the experiment on hyaluronic acid (HA), the “Effect of increasing the content of HA” value is 1913.78 and the “increase in the content … (HA)” value was “significant increase”. In the experiment with Elastin (ELN), the “Effect of increasing the content of Elastin in the fibroblasts” value is given as 1133.42 and the “increase in the content of Elastin” value is on record as “significant increase”. Also, in experiment [1], the “Effect of increasing the content of Collagen I in the fibroblasts” value came out at 81.27 and the “increase in the content … (Collagen I)” value is on record as “significant increase”.

For `CNC(=O)[C@H](Cc1ccc(C)cc1)NC(=O)[C@H](CCCCNC(=O)[C@@H]1C[C@@H](O)CN1)NC(=O)[C@H](Cc1c[nH]cn1)NC(=O)CNC(=O)[C@H](CCCC[N+](C)(C)C)NC(C)=O` [compound 373] (Ac-[Lys(Me3)]GHK(Hyp)[Phe(4-Me)]-NHMe), in the experiment with hyaluronic acid (HA), the “Effect of increasing the content of HA” value amounted to 2472.81 and the “increase in the content … (HA)” value is “significant increase”. In the experiment on Elastin (ELN), the “Effect of increasing the content of Elastin in the fibroblasts” value is reported as 843.14 and the “increase in the content of Elastin” value is “significant increase”. Further, in experiment [1], the “Effect of increasing the content of Collagen I in the fibroblasts” value was found to be 57.84 and the “increase in the content … (Collagen I)” value was “significant increase”.

`CCCCCCCCCCCCCCCC(=O)N[C@@H](CCCC[N+](C)(C)C)C(=O)NCC(=O)N[C@@H](Cc1c[nH]cn1)C(=O)N[C@@H](CCCCNC(=O)[C@@H]1CCCN1)C(=O)N[C@@H](Cc1ccc(C)cc1)C(=O)O` [compound 397] (Palmitoyl-[Lys(Me3)]GHK(Pro)[Phe(4-Me)]-OH): in the experiment with hyaluronic acid (HA), the “Effect of increasing the content of HA” value is 1832.87 and the “increase in the content … (HA)” value was “significant increase”. Also, in the experiment with Elastin (ELN), the “Effect of increasing the content of Elastin in the fibroblasts” value is 1115.1 and the “increase in the content of Elastin” value is “significant increase”. In addition, in experiment [1], the “Effect of increasing the content of Collagen I in the fibroblasts” value is 54.45 and the “increase in the content … (Collagen I)” value is “significant increase”.

Turning to `CCCCCCCCCCCCCCCC(=O)N[C@@H](CCCC[N+](C)(C)C)C(=O)NCC(=O)N[C@@H](Cc1c[nH]cn1)C(=O)N[C@@H](CCCCNC(=O)[C@@H]1C[C@@H](O)CN1)C(=O)N[C@@H](Cc1ccc(C)cc1)C(=O)O` [compound 403] (Palmitoyl-[Lys(Me3)]GHK(Hyp)[Phe(4-Me)]-OH), in the experiment on hyaluronic acid (HA), the “Effect of increasing the content of HA” value was found to be 2688.75 and the “increase in the content … (HA)” value was “significant increase”. Besides, in the experiment with Elastin (ELN), the “Effect of increasing the content of Elastin in the fibroblasts” value stood at 928.61 and the “increase in the content of Elastin” value is listed as “significant increase”. Moreover, in experiment [1], the “Effect of increasing the content of Collagen I in the fibroblasts” value is recorded as 97.51 and the “increase in the content … (Collagen I)” value is listed as “significant increase”.

As for `Cc1ccc(C[C@H](NC(=O)[C@H](CCCCNC(=O)[C@@H]2C[C@@H](O)CN2)NC(=O)[C@H](Cc2c[nH]cn2)NC(=O)CNC(=O)[C@H](CCCC[N+](C)(C)C)NC(=O)CCCC[C@@H]2SC[C@@H]3NC(=O)N[C@@H]32)C(N)=O)cc1` [compound 406] (Biotin-[Lys(Me3)]GHK(Hyp)[Phe(4-Me)]-NH2), in the experiment with hyaluronic acid (HA), the “Effect of increasing the content of HA” value is 1473.32 and the “increase in the content … (HA)” value is “significant increase”. Further, in the experiment with Elastin (ELN), the “Effect of increasing the content of Elastin in the fibroblasts” value is listed as 947.33 and the “increase in the content of Elastin” value is given as “significant increase”. Moreover, in experiment [1], the “Effect of increasing the content of Collagen I in the fibroblasts” value worked out at 88.9 and the “increase in the content … (Collagen I)” value is reported as “significant increase”.

On to `CCCCCCCCCCCCCCCC(=O)N[C@@H](Cc1ccc(C)cc1)C(=O)N[C@@H](C)C(=O)N[C@@H](CCCCN)C(=O)N[C@@H](Cc1c[nH]cn1)C(=O)NCC(=O)N[C@@H](CCCC[N+](C)(C)C)C(=O)O` [compound 415] (Palmitoyl-[Phe(4-Me)]AKHG[Lys(Me3)]-OH), for which, in the experiment with hyaluronic acid (HA), the “Effect of increasing the content of HA” value amounted to 1570.27 and the “increase in the content … (HA)” value was “significant increase”. Moreover, in the experiment with Elastin (ELN), the “Effect of increasing the content of Elastin in the fibroblasts” value was determined as 1010.76 and the “increase in the content of Elastin” value was “significant increase”. In addition, in experiment [1], the “Effect of increasing the content of Collagen I in the fibroblasts” value amounted to 85.52 and the “increase in the content … (Collagen I)” value is reported as “significant increase”.

On to `CCCCCCCCCCCCCCCC(=O)N[C@@H](Cc1ccc(OCC)cc1)C(=O)N[C@@H](C)C(=O)N[C@@H](CCCCN)C(=O)N[C@@H](Cc1c[nH]cn1)C(=O)NCC(=O)N[C@@H](CCCC[N+](C)(C)C)C(=O)O` [compound 417] (Palmitoyl-Y(Et)AKHG[Lys(Me3)]-OH), for which, in the experiment with hyaluronic acid (HA), the “Effect of increasing the content of HA” value is recorded as 1938.51 and the “increase in the content … (HA)” value is on record as “significant increase”. Besides, in the experiment on Elastin (ELN), the “Effect of increasing the content of Elastin in the fibroblasts” value came out at 861.32 and the “increase in the content of Elastin” value is “significant increase”. Besides, in experiment [1], the “Effect of increasing the content of Collagen I in the fibroblasts” value is listed as 92.88 and the “increase in the content … (Collagen I)” value is “significant increase”.
